Measured values as given in US12044651B2, “Sensor device and methods” (SCENTIAN BIO LIMITED, priority 2016, dated 2024).
Each block holds one compound with its values, some of them ahead of it.

Columns and labels:
Format in all cases: binding
OR35a = molecular target: T1, OR35a (Drosophila melanogaster, UniProt Q9V3Q2); experiment: EIS sensor, Or35a liposomes on gold electrode (Example 1); conditions: Or35a liposomes, EIS
T1 sequence (Q9V3Q2 1-409): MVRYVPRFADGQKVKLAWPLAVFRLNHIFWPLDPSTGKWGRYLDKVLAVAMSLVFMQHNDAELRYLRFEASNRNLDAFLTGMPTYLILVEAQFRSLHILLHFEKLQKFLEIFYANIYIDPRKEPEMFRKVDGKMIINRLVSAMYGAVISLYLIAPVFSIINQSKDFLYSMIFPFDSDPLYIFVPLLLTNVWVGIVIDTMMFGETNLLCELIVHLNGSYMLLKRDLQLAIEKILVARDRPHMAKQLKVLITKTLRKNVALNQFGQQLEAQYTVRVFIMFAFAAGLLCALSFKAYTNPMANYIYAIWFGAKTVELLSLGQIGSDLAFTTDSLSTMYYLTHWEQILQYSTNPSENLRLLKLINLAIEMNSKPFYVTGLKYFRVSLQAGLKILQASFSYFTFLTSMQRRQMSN
Protocol: (§1) Liposomes were prepared using a phospholipid solution produced by evaporating solutions containing: phosphatidylethanolamine (PE), phosphatidylserine (PS), phosphatidylcholine (PC), and cholesterol (CH) at a molar ratio of 5:3:3:1 in a small glass tube under a stream of N2 gas, then desiccating under vacuum for 1 h. […] To promote the formation of liposomes, 10 freeze/thaw steps were performed by transferring the tube from liquid nitrogen to a 40° C. water bath. Liposomes were then sized by passing the lipid solution 11 times through a 100-nm polycarbonate membrane using an Avestin LiposoFAST extruder unit (Avestin, Germany). Glycerol was added at 10% of the final volume and aliquots at 10 mg/mL were snap frozen in liquid nitrogen and stored at -80° C. Prior to their use, liposomes were defrosted on ice and then destabilized by incubating with 0.2% CHAPS for 15 min at room temperature. Then 200 μg of purified odorant receptor^14 was added to 1 mg of liposomes and rotated at 10 rpm for 1 h at room temperature. […] The Bio-Beads were removed after each incubation period. The OR integrated liposomes were pelleted by centrifugation at 100,000 g for 1 h, and were resuspended in 500 μL of rehydration buffer. Integration of OrXs into liposomes was assessed by density gradient ultracentrifugation (DGU) using Accudenz (Accurate Chemical & Scientific Corporation, USA). […] The sample was then centrifuged at 100,000 g for 4 h at 4° C. Liposomes will float to the top of the gradient after Accudenz DGU due to their low density. 1.3 Electrode Cleaning Gold disk (2 mm) electrodes were cleaned with polishing with Alumina paste for 2 minutes, ultra-sonicated in pure ethanol and then Milli-Q water for 5 minutes each. […] Charge transfer resistance (Rct) of electrodes were calculated by fitting obtained data to a Randles' equivalent circuit [Rs+CPE/(Rct+W)] comprising of a solution resistance (Rs) in series with a constant phase element (CPE) and in parallel with charge transfer resistance (Rct) and Warburg diffusion element. […]

Or22a = molecular target: T2, Or22a (Drosophila melanogaster, UniProt P81909); experiment: EIS sensor, Or22a liposomes on gold electrode (Example 1); conditions: Or22a liposomes, EIS
T2 sequence (P81909 1-397): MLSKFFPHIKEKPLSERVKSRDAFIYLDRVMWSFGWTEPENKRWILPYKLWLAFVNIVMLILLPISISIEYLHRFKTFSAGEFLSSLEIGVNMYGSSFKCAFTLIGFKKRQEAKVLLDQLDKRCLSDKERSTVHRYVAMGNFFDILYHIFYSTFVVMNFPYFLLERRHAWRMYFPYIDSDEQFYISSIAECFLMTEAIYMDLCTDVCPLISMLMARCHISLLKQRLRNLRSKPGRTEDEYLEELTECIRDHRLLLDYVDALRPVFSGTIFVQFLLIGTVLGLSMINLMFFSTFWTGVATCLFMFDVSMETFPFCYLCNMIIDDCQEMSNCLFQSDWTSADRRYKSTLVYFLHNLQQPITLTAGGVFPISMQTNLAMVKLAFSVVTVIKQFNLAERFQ
Protocol: as §1

Or10a = molecular target: T3, Or10a (Drosophila melanogaster, UniProt Q9VYZ1); experiment: EIS sensor, Or10a liposomes on gold electrode (Example 1); conditions: Or10a liposomes, EIS
T3 sequence (Q9VYZ1 1-406): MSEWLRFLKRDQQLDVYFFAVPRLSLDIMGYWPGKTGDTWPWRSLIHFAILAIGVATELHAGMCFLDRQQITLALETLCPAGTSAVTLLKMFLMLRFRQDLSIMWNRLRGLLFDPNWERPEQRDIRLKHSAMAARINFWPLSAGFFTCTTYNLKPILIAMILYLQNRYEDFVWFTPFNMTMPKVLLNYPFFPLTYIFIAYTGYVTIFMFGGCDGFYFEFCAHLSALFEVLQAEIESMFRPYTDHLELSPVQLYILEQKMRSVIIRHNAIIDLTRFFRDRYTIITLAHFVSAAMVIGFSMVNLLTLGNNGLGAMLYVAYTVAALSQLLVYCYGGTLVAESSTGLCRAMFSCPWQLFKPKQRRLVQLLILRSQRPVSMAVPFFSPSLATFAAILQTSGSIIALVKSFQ
Protocol: as §1

Structure (SMILES): CCC/C=C/C=O [E2-hexenal]
EC50 (OR35a): ~10 nM
Sensitivity limit (lowest detectable concentration) (OR35a; signal/noise >3): 36 pM

Structure (SMILES): CCCCCC(=O)OC [methyl hexanoate]
EC50 (Or22a): ~10 nM
Sensitivity limit (lowest detectable concentration) (Or22a; signal/noise >3): 280 pM

EC50 (Or10a): ~1 nM
Sensitivity limit (lowest detectable concentration) (Or10a; signal/noise >3): 330 pM
Structure (SMILES): COC(=O)c1ccccc1O [methyl salicylate]
